Measurements as given in patent publication US12552824B2, “C-mannoside compounds useful for the treatment of urinary tract infections” (GLAXOSMITHKLINE INTELLECTUAL PROPERTY DEVELOPMENT LIMITED, priority 2018, dated 2026).

Target: T1, FimH (Escherichia coli, UniProt Q1R2J4);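 further: concentration in nM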
T1 construct: endogenous in cells; host or cells: E. coli UTI89 whole bacteria, agglutinating guinea pig red blood cells
Assay: not given
Format: cell-based
Conditions: concentration reducing bacterial agglutination of guinea pig red blood cells by greater than 90%; UTI89 bacteria
Method: Hemagglutination Inhibition Assay (HAI)
The hemagglutination inhibition (HAI) assay was performed with UTI89 bacteria and guinea pig red blood cells, as previously described (S. J. Hultgren, W. R. Schwan, A. J. Schaeffer, J. L. Duncan Infect. Immun. 1986, 54, 613-620 and Jarvis, C.; Han, Z.; Kalas, V.; Klein, R.; Pinkner, J. S.; Ford, B.; Binkley, J.; Cusumano, C. K.; Cusumano, Z.; Mydock-McGrane, L.; Hultgren, S. J.; Janetka, J. W., ChemMedChem 2016, 11, 367-373).

SMILES | HAI titer EC > 90
Cc1cc(-c2cc(F)c(Cl)c(F)c2)ccc1[C@@H](O)[C@H]1O[C@H](CO)[C@@H](O)[C@H](O)[C@@H]1O [Example 2, (2R,3S,4S,5S,6R)-2-((R)-(4′-Chloro-3′,5′-difluoro-3-methyl-[1,1′-biphenyl]-4-yl)(hydroxy)methyl)-6-(hydroxymethyl)tetrahydro-2H-pyran-3,4,5-triol] | “++++” (<50 “++++”)
Cc1cc(-c2ccc(C(F)(F)F)c(Cl)c2)ccc1[C@@H](O)[C@H]1O[C@H](CO)[C@@H](O)[C@H](O)[C@@H]1O [Example 41] | “++++” (<50 “++++”)
COc1cc(OC)cc(-c2ccc([C@@H](O)[C@H]3O[C@H](CO)[C@@H](O)[C@H](O)[C@@H]3O)c(C)c2)c1 [Example 33] | “++++” (<50 “++++”)
Cc1cc(-c2ccc(F)c(C(F)(F)F)c2)ccc1[C@@H](O)[C@H]1O[C@H](CO)[C@@H](O)[C@H](O)[C@@H]1O [Example 25] | “++++” (<50 “++++”)
Cc1cc(-c2cc(C3CC3)ccc2F)ccc1[C@@H](O)[C@H]1O[C@H](CO)[C@@H](O)[C@H](O)[C@@H]1O [Example 54] | “+++” (50-200 “+++”)
Cc1cc(-c2cc(F)cc(F)c2F)ccc1[C@@H](O)[C@H]1O[C@H](CO)[C@@H](O)[C@H](O)[C@@H]1O [Example 70] | “++++” (<50 “++++”)
Cc1cc(-c2cc(F)c(C(C)C)c(F)c2)ccc1[C@@H](O)[C@H]1O[C@H](CO)[C@@H](O)[C@H](O)[C@@H]1O [Example 89] | “++++” (<50 “++++”)
Cc1cc(-c2cc(F)cc(C(F)F)c2)ccc1[C@@H](O)[C@H]1O[C@H](CO)[C@@H](O)[C@H](O)[C@@H]1O [Example 85] | “++++” (<50 “++++”)
Cc1cc(-c2ccc(C3CC3)cc2)ccc1[C@@H](O)[C@H]1O[C@H](CO)[C@@H](O)[C@H](O)[C@@H]1O [Example 100] | “+++” (50-200 “+++”)
COc1cc(-c2ccc([C@@H](O)[C@H]3O[C@H](CO)[C@@H](O)[C@H](O)[C@@H]3O)c(C)c2)cc(F)c1C(F)(F)F [Example 87] | “++++” (<50 “++++”)
Cc1cc(F)c(-c2ccc([C@@H](O)[C@H]3O[C@H](CO)[C@@H](O)[C@H](O)[C@@H]3O)c(C)c2)cc1F [Example 45] | “++++” (<50 “++++”)
Cc1cc(-c2cc(Cl)ccc2F)ccc1[C@@H](O)[C@H]1O[C@H](CO)[C@@H](O)[C@H](O)[C@@H]1O [Example 44] | “+++” (50-200 “+++”)
Cc1cc(-c2ccc(C(F)(F)F)c(C)c2)ccc1[C@@H](O)[C@H]1O[C@H](CO)[C@@H](O)[C@H](O)[C@@H]1O [Example 66] | “++++” (<50 “++++”)
Cc1cc(-c2cc(Cl)c(F)cc2F)ccc1[C@@H](O)[C@H]1O[C@H](CO)[C@@H](O)[C@H](O)[C@@H]1O [Example 48] | “+++” (50-200 “+++”)
Cc1cc(-c2cc(OC(C)C)cc(C(F)(F)F)c2)ccc1[C@@H](O)[C@H]1O[C@H](CO)[C@@H](O)[C@H](O)[C@@H]1O [Example 90] | “+++” (50-200 “+++”)
Cc1cc(Cl)c(-c2ccc([C@@H](O)[C@H]3O[C@H](CO)[C@@H](O)[C@H](O)[C@@H]3O)c(C)c2)cc1F [Example 50] | “+++” (50-200 “+++”)
Cc1cc(-c2ccc(OC(F)(F)F)c(F)c2)ccc1[C@@H](O)[C@H]1O[C@H](CO)[C@@H](O)[C@H](O)[C@@H]1O [Example 28] | “+” (>1000 “+”)
Cc1cc(-c2cc(F)c(C(C)O)c(F)c2)ccc1C(O)C1OC(CO)C(O)C(O)C1O (mixture of isomers) [Example 95] | “++++” (<50 “++++”)

SMILES | HAI titer EC > 90
OC[C@H]1O[C@H]([C@H](O)c2ccc(-c3cc(F)cc(F)c3)cc2Cl)[C@@H](O)[C@@H](O)[C@@H]1O [Example 29] | “+++” (50-200 “+++”)
Cc1cc(-c2cc(C(F)(F)F)ccc2F)ccc1[C@@H](O)[C@H]1O[C@H](CO)[C@@H](O)[C@H](O)[C@@H]1O [Example 46] | “+++” (50-200 “+++”)
Cc1cc(-c2cc(F)c(C(C)O)c(F)c2)ccc1[C@@H](O)[C@H]1O[C@H](CO)[C@@H](O)[C@H](O)[C@@H]1O (single isomer, unassigned) [Example 108] | “++++” (<50 “++++”)
Cc1cc(-c2ccc(CN(C)C)c(F)c2)ccc1[C@@H](O)[C@H]1O[C@H](CO)[C@@H](O)[C@H](O)[C@@H]1O [Example 83] | “++++” (<50 “++++”)
COc1cc(F)cc(-c2ccc([C@@H](O)[C@H]3O[C@H](CO)[C@@H](O)[C@H](O)[C@@H]3O)c(C(F)(F)F)c2)c1 [Example 58] | “++++” (<50 “++++”)
Cc1cc(-c2cc(F)c(N(C)C)c(F)c2)ccc1[C@@H](O)[C@H]1O[C@H](CO)[C@@H](O)[C@H](O)[C@@H]1O [Example 104] | “++++” (<50 “++++”)
COc1cc(-c2ccc([C@@H](O)[C@H]3O[C@H](CO)[C@@H](O)[C@H](O)[C@@H]3O)c(C)c2)cc(OC)c1F [Example 39] | “++++” (<50 “++++”)
COc1cc(-c2ccc([C@@H](O)[C@H]3O[C@H](CO)[C@@H](O)[C@H](O)[C@@H]3O)c(C)c2)cc(C(F)(F)F)c1F [Example 106] | “++++” (<50 “++++”)
COc1ccc(-c2ccc([C@@H](O)[C@H]3O[C@H](CO)[C@@H](O)[C@H](O)[C@@H]3O)c(C)c2)cc1C(F)(F)F [Example 69] | “++++” (<50 “++++”)
COc1cc(-c2ccc([C@@H](O)[C@H]3O[C@H](CO)[C@@H](O)[C@H](O)[C@@H]3O)c(C)c2)ccc1F [Example 27] | “+++” (50-200 “+++”)
Cc1cc(-c2ccc(Cl)c(C(F)(F)F)c2)ccc1[C@@H](O)[C@H]1O[C@H](CO)[C@@H](O)[C@H](O)[C@@H]1O [Example 30] | “++++” (<50 “++++”)
COc1cc(-c2ccc([C@@H](O)[C@H]3O[C@H](CO)[C@@H](O)[C@H](O)[C@@H]3O)c(C)c2)cc(F)c1F [Example 34] | “++++” (<50 “++++”)
Cc1cc(-c2cc(Cl)ccc2OC(F)(F)F)ccc1[C@@H](O)[C@H]1O[C@H](CO)[C@@H](O)[C@H](O)[C@@H]1O [Example 55] | “+++” (50-200 “+++”)
Cc1cc(-c2cc(F)cc(F)c2)cc(F)c1[C@@H](O)[C@H]1O[C@H](CO)[C@@H](O)[C@H](O)[C@@H]1O [Example 37] | “++++” (<50 “++++”)
COc1cc(C)cc(-c2ccc([C@@H](O)[C@H]3O[C@H](CO)[C@@H](O)[C@H](O)[C@@H]3O)c(C)c2)c1 [Example 65] | “+++” (50-200 “+++”)
Cc1cc(-c2cc(F)cc(OC3CC3)c2)ccc1[C@@H](O)[C@H]1O[C@H](CO)[C@@H](O)[C@H](O)[C@@H]1O [Example 51] | “++++” (<50 “++++”)
COc1c(F)cc(-c2ccc([C@@H](O)[C@H]3O[C@H](CO)[C@@H](O)[C@H](O)[C@@H]3O)c(C)c2)cc1F [Example 35] | “++++” (<50 “++++”)

Tested on: not listed separately
Assay: Rat pharmacokinetics: IV infusion 1 mg/kg, then PO 5 mg/kg; blood and urine by LC-MS/MS
Format: in vivo, Male Wistar Han rats
Conditions: male, Wistar Han, whole blood, oral bioavailability, ratio of dose-normalised AUC PO (5 mg/kg) and IV infusion (1 mg/kg)
Source text: General Assays for Obtaining AUC Oral h*μm, % F, and Ue % PO Values
Male Wistar Han rats were purchased from Vital River Laboratory Animal Technology Co. Ltd (Beijing, China). The animals were approx. 6-8 weeks old with body weights of 200-300 g on the dosing date. The animals were housed in a 12-hour light/12-hour dark cycle environment and had free access to food and water. All animals were fed prior to dosing. Studies were approved by the Pharmaron Institutional Animal Care and Use Committee (IACUC).
Test article was administered as an intravenous infusion for 1 hour (1 mg/kg) at 5 mL/kg/h. After 48 h, animals received a single oral dose (5 mg/kg, free form) at a dose volume of 10 mL/kg, respectively. Blood samples were collected at various time points after IV infusion and PO administrations. Urine samples were collected at various time points after IV infusion and PO administrations.
Test article was dissolved in DMSO with vortexing and sonification to obtain a stock solution. An aliquot of the stock solution was mixed with 10% HP-β-CD in saline with vortexing to obtain a solution with concentration at 0.2 mg/mL of test article.
Test article was added into 1% Methyl Cellulose with vortexing and sonication to obtain a homogeneous suspension with concentration at 0.5 mg/mL of test article.
For IV infusion (1 mg/kg) administration, blood samples were collected from each animal at 0, 0.25, 0.5, 0.75, 1, 1.08, 1.25, 1.5, 1.75, 2, 3, 5, 8, 12, 24 hour post-dose.
For PO (5 mg/kg) administration, blood samples were collected from each animal at 0, 0.25, 0.5, 1, 1.5, 2, 3, 4, 6, 8, 12, 24 hour post-dose.
Blood samples (50 μL) were collected from each animal via jugular vein. These blood samples were placed into tubes containing K2EDTA. Whole blood was mixed with same volume of water and inverted several times. The blood samples were stored at −75±15° C. until analysis.
For IV infusion (1 mg/kg) administration, urine samples were collected from each animal at 0-4, 4-8, 8-12, 12-24 hour post-dose.
For PO (5 mg/kg) administration, urine samples were collected from each animal at 0-4, 4-8, 8-12, 12-24 hour post-dose.
Urine samples were collected continuously into containers maintained over dry ice at the intervals outlined below and stored at −80° C. prior to analysis.
55 μL of standards, 55 μL of QC samples or 55 μL of unknown samples (50 μL of blood or urine with 5 μL 50% acetonitrile) were mixed to 200 μL of acetonitrile containing IS (dexamethasone) to precipitate proteins. Then the samples were vortexed for 30 sec. After centrifugation at 4° C., 4700 rpm for 30 min, and 5 μL of the supernatant was injected into the LC-MS/MS system for quantitative analysis.
Test article blood and urine concentrations for each animal following IV infusion at 1 mg/kg and PO at 5 mg/kg were used to calculate pharmacokinetic parameters by employing a non-compartmental analysis (Phoenix™ WinNonlin® 7.0). The linear trapezoidal algorithm was used for AUC calculation.

SMILES | bioavailability
Cc1cc(-c2cc(F)c(Cl)c(F)c2)ccc1[C@@H](O)[C@H]1O[C@H](CO)[C@@H](O)[C@H](O)[C@@H]1O [Example 2, (2R,3S,4S,5S,6R)-2-((R)-(4′-Chloro-3′,5′-difluoro-3-methyl-[1,1′-biphenyl]-4-yl)(hydroxy)methyl)-6-(hydroxymethyl)tetrahydro-2H-pyran-3,4,5-triol] | 10 to 30%

Same assay, conditions: percentage of oral dose (5 mg/kg) eliminated unchanged in urine

SMILES | Ue % po
Cc1cc(-c2cc(F)c(Cl)c(F)c2)ccc1[C@@H](O)[C@H]1O[C@H](CO)[C@@H](O)[C@H](O)[C@@H]1O [Example 2, (2R,3S,4S,5S,6R)-2-((R)-(4′-Chloro-3′,5′-difluoro-3-methyl-[1,1′-biphenyl]-4-yl)(hydroxy)methyl)-6-(hydroxymethyl)tetrahydro-2H-pyran-3,4,5-triol] | “++” (0.5 <= x <= 5%)

Same assay, conditions: whole blood, area under blood concentration-time profile, PO 5 mg/kg, male Wistar Han rats, n = 3

SMILES | AUC
Cc1cc(-c2cc(F)c(Cl)c(F)c2)ccc1[C@@H](O)[C@H]1O[C@H](CO)[C@@H](O)[C@H](O)[C@@H]1O [Example 2, (2R,3S,4S,5S,6R)-2-((R)-(4′-Chloro-3′,5′-difluoro-3-methyl-[1,1′-biphenyl]-4-yl)(hydroxy)methyl)-6-(hydroxymethyl)tetrahydro-2H-pyran-3,4,5-triol] | > 1 µM·h
